# Assay results: US12503475B2 (Centessa Pharmaceuticals (UK) Limited, priority 2020, dated 2025)
# Target: T1, human orexin type 2 receptor (hOX2R) (Homo sapiens, UniProt O43614)
# T1 construct: expressed in transfected cells
# T1 sequence (O43614 1-444): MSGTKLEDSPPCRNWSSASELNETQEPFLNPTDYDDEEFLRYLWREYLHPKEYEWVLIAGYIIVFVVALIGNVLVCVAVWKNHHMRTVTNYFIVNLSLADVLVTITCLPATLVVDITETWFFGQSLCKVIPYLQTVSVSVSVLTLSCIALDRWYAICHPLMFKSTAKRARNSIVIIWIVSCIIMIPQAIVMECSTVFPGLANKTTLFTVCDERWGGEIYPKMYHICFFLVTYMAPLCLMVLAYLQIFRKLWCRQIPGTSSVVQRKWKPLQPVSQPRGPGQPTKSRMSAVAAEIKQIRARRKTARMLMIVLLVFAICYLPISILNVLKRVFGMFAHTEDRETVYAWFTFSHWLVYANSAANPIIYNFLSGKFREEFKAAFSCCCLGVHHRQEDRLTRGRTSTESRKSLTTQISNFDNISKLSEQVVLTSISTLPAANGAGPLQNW
# Test: Measurement of orexin type 2 receptor agonist activity (FLIPR calcium fluorescence)
# Type: cell-based
# Details: CHO cells expressing hOX2R, FLIPR calcium fluorescence; for EC50: read-out: hOx2 pEC50 (converted); for Emax: CHO, read-out: hOx2 Emax (%)
# Outline: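 Agonism was read as fluorescence in cells stably expressing human OX2R. E. is the response at 10 μM relative to orexin A as full agonist (100%).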
EC50,Emax,SMILES
0.0794 to 1 nM,90 to 100%,"CC1(CNC(=O)N2CC3(CC3)[C@H](NS(C)(=O)=O)[C@@H]2Cc2cccc(-c3ccccc3)c2F)COC1 [Compound 322, (6S,7S)-6-((2-fluoro-[1,1′-biphenyl]-3-yl)methyl)-N-((3-methyloxetan-3-yl)methyl)-7-(methylsulfonamido)-5-azaspiro[2.4]heptane-5-carboxamide]"
1 to 10 nM,90 to 100%,"N#CC1(C(=O)N2CC3(CC3)[C@H](NS(=O)(=O)CF)[C@@H]2Cc2cccc(-c3cc(F)cc(F)c3)c2F)CCC1 [Compound 231, N-((6S,7S)-5-(1-cyanocyclobutane-1-carbonyl)-6-((2,3′,5′-trifluoro-[1,1′-biphenyl]-3-yl)methyl)-5-azaspiro[2.4]heptan-7-yl)-1-fluoromethanesulfonamide]"
0.0794 to 1 nM,90 to 100%,"O=C([C@H]1CCO1)N1CC2(CC2)[C@H](NS(=O)(=O)CF)[C@@H]1Cc1cccc(-c2cccc(C(F)F)c2)c1F [Compound 196, N-((6S,7S)-6-((3′-(difluoromethyl)-2-fluoro-[1,1′-biphenyl]-3-yl)methyl)-5-((R)-oxetane-2-carbonyl)-5-azaspiro[2.4]heptan-7-yl)-1-fluoromethanesulfonamide]"
1 to 10 nM,90 to 100%,CO[C@@H](C)CN(C)C(=O)N1CC2(CC2)[C@H](NS(C)(=O)=O)[C@@H]1Cc1cccc(-c2ccccc2)c1F [Compound 316]
1 to 10 nM,90 to 100%,"C[C@H](F)C(=O)N1CC2(CC2)[C@H](NS(=O)(=O)CF)[C@@H]1Cc1cc(F)cc(-c2cccc(F)c2)c1F [Compound 393, 1-fluoro-N-((6S,7S)-5-((S)-2-fluoropropanoyl)-6-((2,3′,5-trifluoro-[1,1′-biphenyl]-3-yl)methyl)-5-azaspiro[2.4]heptan-7-yl)methanesulfonamide]"
1 to 10 nM,90 to 100%,"O=C(NCC1(F)CC1)N1CC2(CC2)[C@H](NS(=O)(=O)C(F)F)[C@@H]1Cc1cc(F)cc(-c2cc(F)cc(F)c2)c1F [Compound 416, (6S,7S)-7-((difluoromethyl)sulfonamido)-N-((1-fluorocyclopropyl)methyl)-6-((2,3′,5,5′-tetrafluoro-[1,1′-biphenyl]-3-yl)methyl)-5-azaspiro[2.4]heptane-5-carboxamide]"
1 to 10 nM,90 to 100%,CC(F)(F)CNC(=O)N1CC2(CC2)[C@H](NS(=O)(=O)CF)[C@@H]1Cc1cccc(-c2ccccc2)c1F [Compound 409]
100 to 1000 nM,90 to 100%,"CS(=O)(=O)NC1C(Cc2cccc(-c3ccccc3)c2)N(C(=O)N2CC(F)(F)C2)CC12CC2 (racemic) [Compound 10, N-(6-([1,1′-biphenyl]-3-ylmethyl)-5-(3,3-difluoroazetidine-1-carbonyl)-5-azaspiro[2.4]heptan-7-yl)methanesulfonamide]"
1 to 10 nM,90 to 100%,"CS(=O)(=O)N[C@@H]1[C@H](Cc2cccc(-c3ccccc3)c2F)N(C(=O)NC[C@H]2CCO2)CC12CC2 [Compound 331, (6S,7S)-6-((2-fluoro-[1,1′-biphenyl]-3-yl)methyl)-7-(methylsulfonamido)-N-(((R)-oxetan-2-yl)methyl)-5-azaspiro[2.4]heptane-5-carboxamide]"
0.0794 to 1 nM,90 to 100%,"[2H]C([2H])([2H])c1cccc(-c2cccc(C[C@H]3[C@@H](NS(=O)(=O)CF)C4(CC4)CN3C(=O)[C@H]3CCO3)c2F)c1 [Compound 229, 1-fluoro-N-((6S,7S)-6-((2-fluoro-3′-(methyl-d3)-[1,1′-biphenyl]-3-yl)methyl)-5-((R)-oxetane-2-carbonyl)-5-azaspiro[2.4]heptan-7-yl)methanesulfonamide]"
1 to 10 nM,90 to 100%,"COCCNC(=O)N1CC2(CC2)[C@H](NS(C)(=O)=O)[C@@H]1Cc1cccc(-c2ccccc2)c1F [Compound 311, (6S,7S)-6-((2-fluoro-[1,1′-biphenyl]-3-yl)methyl)-N-(2-methoxyethyl)-7-(methylsulfonamido)-5-azaspiro[2.4]heptane-5-carboxamide]"
10 to 100 nM,80 to 90%,"CC(C)(O)C(=O)N1CC2(CC2)[C@H](NS(=O)(=O)C(F)F)[C@@H]1Cc1cccc(-c2cccc(F)c2)c1F [Compound 164, N-((6S,7S)-6-((2,3′-difluoro-[1,1′-biphenyl]-3-yl)methyl)-5-(2-hydroxy-2-methylpropanoyl)-5-azaspiro[2.4]heptan-7-yl)-1,1-difluoromethanesulfonamide]"
1 to 10 nM,90 to 100%,O=C([C@H]1C[C@@H](F)C1)N1CC2(CC2)[C@H](NS(=O)(=O)CF)[C@@H]1Cc1cccc(-c2ccccc2)c1F [Compound 189]
1 to 10 nM,90 to 100%,"O=C(NCC1COC1)N1CC2(CC2)[C@H](NS(=O)(=O)CF)[C@@H]1Cc1cccc(-c2ccccc2)c1F [Compound 366, (6S,7S)-6-((2-fluoro-[1,1′-biphenyl]-3-yl)methyl)-7-((fluoromethyl)sulfonamido)-N-(oxetan-3-ylmethyl)-5-azaspiro[2.4]heptane-5-carboxamide]"
1 to 10 nM,90 to 100%,"CC(C)(O)C(=O)N1CC2(CC2)[C@H](NS(=O)(=O)CF)[C@@H]1Cc1cccc(-c2cc(F)cc(F)c2)c1F [Compound 192, 1-fluoro-N-((6S,7S)-5-(2-hydroxy-2-methylpropanoyl)-6-((2,3′,5′-trifluoro-[1,1′-biphenyl]-3-yl)methyl)-5-azaspiro[2.4]heptan-7-yl)methanesulfonamide]"
1 to 10 nM,90 to 100%,"CCS(=O)(=O)N[C@@H]1[C@H](Cc2cc(F)cc(-c3cc(F)cc(F)c3)c2F)N(C(=O)[C@H]2CCO2)CC12CC2 [Compound 407, N-((6S,7S)-5-((R)-oxetane-2-carbonyl)-6-((2,3′,5,5′-tetrafluoro-[1,1′-biphenyl]-3-yl)methyl)-5-azaspiro[2.4]heptan-7-yl)ethanesulfonamide]"
1 to 10 nM,90 to 100%,"O=C([C@H]1CCO1)N1CC2(CC2)[C@H](NS(=O)(=O)C2CC2)[C@@H]1Cc1cc(F)cc(-c2ccccc2)c1F [Compound 349, N-((6S,7S)-6-((2,5-difluoro-[1,1′-biphenyl]-3-yl)methyl)-5-((R)-oxetane-2-carbonyl)-5-azaspiro[2.4]heptan-7-yl)cyclopropanesulfonamide]"
1 to 10 nM,90 to 100%,"CC(C)(O)C(=O)N1CC2(CC2)[C@H](NS(=O)(=O)CF)[C@@H]1Cc1cccc(-c2cccc(F)c2)c1F [Compound 177, N-((6S,7S)-6-((2,3′-difluoro-[1,1′-biphenyl]-3-yl)methyl)-5-(2-hydroxy-2-methylpropanoyl)-5-azaspiro[2.4]heptan-7-yl)-1-fluoromethanesulfonamide]"
1 to 10 nM,90 to 100%,"CS(=O)(=O)N[C@@H]1[C@H](Cc2cccc(-c3ccccc3)c2F)N(C(=O)NC[C@@H]2CCOC2)CC12CC2 [Compound 329, (6S,7S)-6-((2-fluoro-[1,1′-biphenyl]-3-yl)methyl)-7-(methylsulfonamido)-N-(((S)-tetrahydrofuran-3-yl)methyl)-5-azaspiro[2.4]heptane-5-carboxamide]"
1 to 10 nM,90 to 100%,"O=C(NC[C@@H]1CCO1)N1CC2(CC2)[C@H](NS(=O)(=O)CF)[C@@H]1Cc1cccc(-c2ccccc2)c1F [Compound 374, (6S,7S)-6-((2-fluoro-[1,1′-biphenyl]-3-yl)methyl)-7-((fluoromethyl)sulfonamido)-N-(((S)-oxetan-2-yl)methyl)-5-azaspiro[2.4]heptane-5-carboxamide]"
